In this test the target is T1, human IL-23R (Homo sapiens, UniProt Q5VWK5).
T1 sequence (Q5VWK5 22-629): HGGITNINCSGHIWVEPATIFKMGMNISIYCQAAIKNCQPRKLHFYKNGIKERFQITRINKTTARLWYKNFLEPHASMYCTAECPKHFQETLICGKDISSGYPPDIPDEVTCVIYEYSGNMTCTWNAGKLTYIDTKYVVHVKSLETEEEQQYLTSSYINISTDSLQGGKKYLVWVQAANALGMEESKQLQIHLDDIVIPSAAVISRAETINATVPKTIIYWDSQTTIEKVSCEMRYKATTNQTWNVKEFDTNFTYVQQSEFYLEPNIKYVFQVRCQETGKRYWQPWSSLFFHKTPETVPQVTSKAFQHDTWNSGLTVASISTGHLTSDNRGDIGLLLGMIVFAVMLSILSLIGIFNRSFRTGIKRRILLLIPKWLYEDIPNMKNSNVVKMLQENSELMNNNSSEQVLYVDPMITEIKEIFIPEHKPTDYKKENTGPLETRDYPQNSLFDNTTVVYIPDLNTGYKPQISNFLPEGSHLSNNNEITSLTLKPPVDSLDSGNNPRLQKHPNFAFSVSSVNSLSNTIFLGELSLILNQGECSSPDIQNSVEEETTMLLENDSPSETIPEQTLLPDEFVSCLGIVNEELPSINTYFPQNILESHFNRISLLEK
Nature of the test: biochemical. In a few lines: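 Membranes from HEK293 cells stably expressing Nluc-tagged human IL-23R were incubated 2 h at room temperature with test compound and a fluorophore-labelled tracer. After substrate addition, loss of BRET (TAMRA over luciferase emission) reported tracer displacement. A 4PL fit gave IC50 values.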

Structures are written as SMILES.

For the compound `CC(C)C[C@]1(C)NC(=O)[C@H](Cc2ccc3ccccc3c2)NC(=O)[C@H](Cc2ccc(OCCN)cc2)NC(=O)[C@@H]2CCC(=O)N[C@H](CCCCNC(=O)CC[C@@H](C(=O)N[C@@H](CCN)C(=O)N[C@@H](Cc3cccnc3)C(N)=O)NC1=O)C(=O)N[C@@H]([C@@H](C)O)C(=O)N[C@@H](C(C)C)C(=O)N[C@@H](Cc1c[nH]c3ccccc13)C(=O)N[C@@H](CCC(N)=O)C(=O)N2` [Compound 1, [{d}K](1c)(6c)^†TVWQE(6c)[Y(2-aminoethoxy)][2-Nal][2-Me-Leu]E(1c)[Dab][3-(3-Pyridyl)-Ala]-[NH2]], the “% displacement (hIL-23R NIuc)” value came to 103% and half-maximal inhibition (IC50) was put at 0.04 nM.

(Values after EP4471048A1, “PEPTIDE INHIBITORS OF INTERLEUKIN-23 RECEPTOR” (Zealand Pharma A/S, priority 2023, dated 2024).)
